Columns and labels:
α5β2γ2 GABAA receptor = target: T1, α5β2γ2 GABAA receptor (Homo sapiens, UniProt P18507+P31644); experiment: Assay B: modulation of α5β2γ2 GABAA receptor, two-electrode voltage clamp in oocytes; format: cell-based; conditions: for EC50: oocytes, TEVC, co-application with GABA 0.5 μM (EC5-20), read-out: Assay B: GABAA α5β3γ2 EC50
T1 sequence (P31644 32-462): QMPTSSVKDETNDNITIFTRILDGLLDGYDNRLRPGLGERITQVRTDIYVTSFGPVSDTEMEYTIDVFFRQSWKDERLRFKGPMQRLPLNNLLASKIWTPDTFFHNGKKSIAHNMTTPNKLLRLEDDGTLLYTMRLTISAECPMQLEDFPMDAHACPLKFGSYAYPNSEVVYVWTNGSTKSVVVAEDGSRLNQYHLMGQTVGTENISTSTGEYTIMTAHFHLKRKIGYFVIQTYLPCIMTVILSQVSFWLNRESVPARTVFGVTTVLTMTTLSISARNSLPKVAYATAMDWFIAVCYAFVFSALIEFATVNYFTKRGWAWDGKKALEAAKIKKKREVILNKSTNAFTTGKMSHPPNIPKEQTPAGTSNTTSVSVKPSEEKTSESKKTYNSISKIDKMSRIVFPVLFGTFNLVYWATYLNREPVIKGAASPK
T1 sequence (P18507 40-376 limits assumed): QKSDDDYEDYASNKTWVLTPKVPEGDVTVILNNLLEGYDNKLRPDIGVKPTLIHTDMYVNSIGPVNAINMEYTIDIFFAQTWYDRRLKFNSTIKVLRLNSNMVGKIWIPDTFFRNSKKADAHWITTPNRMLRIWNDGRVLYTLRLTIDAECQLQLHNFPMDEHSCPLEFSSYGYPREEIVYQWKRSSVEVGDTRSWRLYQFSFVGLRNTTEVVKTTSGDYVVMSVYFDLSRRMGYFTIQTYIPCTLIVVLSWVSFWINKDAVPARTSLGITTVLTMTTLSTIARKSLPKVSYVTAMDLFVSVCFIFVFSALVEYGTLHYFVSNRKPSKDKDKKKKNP
Description: Assay B: In vitro evaluation of modulation of α5β2γ2 GABAA receptor.
Modulatory efficacy of compounds of formula (I) is determined electrophysiological recordings in oocytes using the two-electrode voltage clamp (TEVC) technique. Oocytes are injected with cRNA for human GABAA receptor subunits α5, β2 and γ2 in a 3:1:3 ratio and modulatory efficacy is evaluated by co-applications with a submaximal EC5-20 GABA concentration (0.5 μM) termed GABA control. As a standard, the compounds are tested in five concentrations (3.16, 0.316, 0.0316, 0.00316 and 0.000316 μM) on each oocyte starting with the lowest concentration. Background subtracted peak current amplitudes are normalized to the respective GABA control current, converted to % change and depicted +/−S.E.M. as a function of increasing compound concentrations. Plotted datapoints are fitted to the empirical Hill equation using non-linear regression. 95% confidence intervals for maximal efficacy (Bottom) and potency (Log EC50) are derived from this fitting routine.

[1] = Metabolic stability in human liver microsomes (Human MST); format: in vitro ADME; conditions: pooled human liver microsomes, pH 7.6; human liver microsomes 1 mg/mL, 1 μM compound, NADPH 1 mM, 37° C.; read-out: Human MST t1/2
Description: Assessment of Metabolic Stability in Human Liver Microsomes (Human MST) The metabolic stability of the compounds according to the invention may be investigated as follows: The metabolic degradation of the test compound is assayed at 37° C. with pooled human liver microsomes. The final incubation volume of 100 μL per time point contains TRIS buffer pH 7.6 at room temperature (0.1 M), MgCl2 (5 mM), microsomal protein (1 mg/mL) and the test compound at a final concentration of 1 μM. Following a short pre-incubation period at 37° C., the reactions are initiated by addition of beta-nicotinamide adenine dinucleotide phosphate, reduced form (NADPH, 1 mM), and terminated by transferring an aliquot into solvent after different time points. After centrifugation (10000 g, 5 min), an aliquot of the supernatant is assayed by LCMS/MS for the amount of parent compound. The half-life (t½) is determined by the slope of the semi-logarithmic plot of the concentration-time profile.

Assay B: GABAA α5β3γ2 Emax vs GABA (α5β2γ2 GABAA receptor) | EC50 (α5β2γ2 GABAA receptor) | half-life at 1 μM [1] | SMILES
-9% | 76.9 nM | 0.517 h | Cc1nnn(-c2ccc(C(F)F)cc2)c1COc1ccc(-n2ccc(C(F)(F)F)n2)nn1 [Example 24]
-17.3% | 1.8 nM | > 2.17 h | Cc1nnn(-c2ccc(C(F)F)cc2)c1COc1ccc(-n2cnc(C(C)(C)O)c2)nn1 [Example 39, 2-{1-[6-({1-[4-(difluoromethyl)phenyl]-4-methyl-1H-1,2,3-triazol-5-yl}methoxy)pyridazin-3-yl]-1H-imidazol-4-yl}propan-2-ol]
-37.7% | 5.8 nM | > 2.17 h | Cc1nnn(-c2ccc(C(F)F)cc2)c1COc1ccc(-c2cnn(C)c2)nn1 [Example 5]
-27% | 3.4 nM | > 2.17 h | Cc1nnn(-c2ccc(C(F)F)cc2)c1COc1ccc(-n2cc3c(n2)CCNC3=O)nn1 [Example 26]
-44.3% | 13.5 nM | – | COc1ncc(-c2ccc(OCc3c(C)nnn3-c3ccc(C(F)F)cc3)nn2)cn1 [Example 3]
-33.3% | 6.9 nM | > 2.17 h | Cc1ncc(-c2ccc(OCc3c(C)nnn3-c3ccc(C(F)F)cc3)nn2)o1 [Example 6]
-0.7% | – | > 2.17 h | Cc1nnn(-c2ccc(C(F)F)cc2)c1COc1ccc(-n2cc(C(F)(F)F)cn2)nn1 [Example 25]
-35.2% | 0.4 nM | > 2.17 h | Cc1nnn(-c2ccc(C(F)F)cc2)c1COc1ccc(-n2cnc(C(N)=O)c2)nn1 [Example 27, 1-[6-({1-[4-(difluoromethyl)phenyl]-4-methyl-1H-1,2,3-triazol-5-yl}methoxy)pyridazin-3-yl]-1H-imidazole-4-carboxamide]
-23% | 7.4 nM | > 2.17 h | Cc1nnn(-c2ccc(C(F)F)cc2)c1COc1ccc(-n2cc(C#N)cn2)nn1 [Example 31]
-25% | 7.7 nM | > 2.17 h | Cc1nnn(-c2ccc(C(F)F)cc2)c1COc1ccc(-n2cnc(S(C)(=O)=O)c2)nn1 [Example 19]
-23% | 1.7 nM | > 2.17 h | Cc1nnn(-c2ccc(C(F)F)cc2)c1COc1ccc(-n2cnc(CO)c2)nn1 [Example 38, {1-[6-({1-[4-(difluoromethyl)phenyl]-4-methyl-1H-1,2,3-triazol-5-yl}methoxy)pyridazin-3-yl]-1H-imidazol-4-yl}methanol]
-27.5% | 3.7 nM | > 2.17 h | Cc1nnn(-c2ccc(C(F)F)cc2)c1COc1ccc(-n2cnc(Cl)c2)nn1 [Example 18]
-19.5% | 17 nM | 1.22 h | Cc1nnn(-c2ccc(C(F)F)cc2)c1COc1ccc(-c2cncc(-n3ccnc3)c2)nn1 [Example 8]
-17% | 1.9 nM | > 2.17 h | Cc1nnn(-c2ccc(C(F)F)cc2)c1COc1ccc(-n2cnc(C(C)O)c2)nn1 (stereo not shown) [Example 40]
-47.3% | 2.3 nM | > 2.17 h | CNC(=O)c1cn(-c2ccc(OCc3c(C)nnn3-c3ccc(C(F)F)cc3)nn2)cn1 [Example 14]
-22.8% | 5.7 nM | > 2.17 h | CC(=O)c1cn(-c2ccc(OCc3c(C)nnn3-c3ccc(C(F)F)cc3)nn2)cn1 [Example 32]

Assay B: GABAA α5β3γ2 Emax vs GABA (α5β2γ2 GABAA receptor) | EC50 (α5β2γ2 GABAA receptor) | half-life at 1 μM [1] | SMILES
-32% | 6 nM | – | CCn1cc(-c2ccc(OCc3c(C)nnn3-c3ccc(C(F)F)cc3)nn2)cn1 [Example 7]
-22% | 11.2 nM | > 2.17 h | Cc1ncn(-c2ccc(OCc3c(C)nnn3-c3ccc(C(F)F)cc3)nn2)n1 [Example 33]
-42.5% | 1.4 nM | > 2.17 h | Cc1nnn(-c2ccc(C(F)F)cc2)c1COc1ccc(-n2cnc(C(F)F)c2)nn1 [Example 15]
-23% | 1.7 nM | 0.167 h | Cc1nnn(-c2ccc(C(F)F)cc2)c1COc1ccc(-n2cnc(C=O)c2)nn1 [Example 17]
-29% | 1.8 nM | 0.433 h | COC(=O)c1cn(-c2ccc(OCc3c(C)nnn3-c3ccc(C(F)F)cc3)nn2)cn1 [Example 29]
-28.2% | 4.7 nM | > 2.17 h | Cc1nnn(-c2ccc(C(F)F)cc2)c1COc1ccc(-n2cnc(C(=O)O)c2)nn1 [Example 37, 1-[6-({1-[4-(difluoromethyl)phenyl]-4-methyl-1H-1,2,3-triazol-5-yl}methoxy)pyridazin-3-yl]-1H-imidazole-4-carboxylic acid]
2% | – | 0.617 h | Cc1nnn(-c2ccc(C(F)F)cc2)c1COc1ccc(-n2ccc(C(N)=O)n2)nn1 [Example 21]
-41.5% | 22.8 nM | > 2.17 h | Cc1nnn(-c2ccc(C(F)F)cc2)c1COc1ccc(-c2cnc(OCC(C)(C)O)nc2)nn1 [Example 4]
-57% | 6 nM | > 2.17 h | Cc1nnn(-c2ccc(C(F)F)cc2)c1COc1ccc(-c2ccnc(O)c2)nn1 [Example 2, 4-[6-({1-[4-(difluoromethyl)phenyl]-4-methyl-1H-1,2,3-triazol-5-yl}methoxy)pyridazin-3-yl]pyridin-2-ol]
-19.7% | 4.4 nM | – | Cc1nnn(-c2ccc(C(F)F)cc2)c1COc1ccc(-n2ccc(C#N)n2)nn1 [Example 20]
-26% | 13 nM | 0.417 h | Cc1n[nH]c(C)c1-c1ccc(OCc2c(C)nnn2-c2ccc(C(F)F)cc2)nn1 [Example 12, 3-({1-[4-(difluoromethyl)phenyl]-4-methyl-1H-1,2,3-triazol-5-yl}methoxy)-6-(3,5-dimethyl-1H-pyrazol-4-yl)pyridazine]
-17.6% | 10.3 nM | > 2.17 h | Cc1cc(-c2ccc(OCc3c(C)nnn3-c3ccc(C(F)F)cc3)nn2)cnn1 [Example 11]
-17.3% | 0.5 nM | > 2.17 h | Cc1nnn(-c2ccc(C(F)F)cc2)c1COc1ccc(-c2cncnc2)nn1 [Example 22]
-21.7% | 2.1 nM | > 2.17 h | Cc1nnn(-c2ccc(C(F)F)cc2)c1COc1ccc(-n2cnc(CN)c2)nn1 [Example 35, {1-[6-({1-[4-(difluoromethyl)phenyl]-4-methyl-1H-1,2,3-triazol-5-yl}methoxy)pyridazin-3-yl]-1H-imidazol-4-yl}methanamine]
-12% | 47.5 nM | > 2.17 h | Cc1nnn(-c2ccc(C(F)F)cc2)c1COc1ccc(-c2cnn(C3CC3)c2)nn1 [Example 9]

SMILES | Assay B: GABAA α5β3γ2 Emax vs GABA (α5β2γ2 GABAA receptor) | EC50 (α5β2γ2 GABAA receptor) | half-life at 1 μM [1]
Cc1nnn(-c2ccc(C(F)F)cc2)c1COc1ccc(-n2cnc(C[N+](C)(C)C)c2)nn1.O=C([O-])C(F)(F)F [Example 36, ({1-[6-({1-[4-(difluoromethyl)phenyl]-4-methyl-1H-1,2,3-triazol-5-yl}methoxy)pyridazin-3-yl]-1H-imidazol-4-yl}methyl)trimethylazanium trifluoroacetate] | -31.5% | 6.2 nM | > 2.17 h
